The target in one data set is T1, mGluR5 receptors (Rattus norvegicus, UniProt P31424).
T1 construct: endogenous in cells; host or cells: primary astrocytes from neocortex of Sprague-Dawley rat pups (2-4 d old)
The data set is described as follows: Cytosolic calcium studies with astrocytes (astrocyte culture test, FLIPR). To be noted: rat primary astrocytes; L-quisqualate 100 nM; read-out: mGluR5_FLIPR_r_rpA— IC50. In kind it is cell-based. Here is the method: Primary astrocyte cultures are prepared from cortices of newborn rats as described by Booher and Sensenbrenner (1972, Neurobiology 2(3):97-105). Briefly, Sprague-Dawley rat pups (2-4 d old) are decapitated and neocortices are dissected, disintegrated with a nylon filter (pore size 80 μm) and carefully triturated. The cell suspension is plated on poly-D-lysine pre-coated flasks (Costar, Netherlands) and cultivated in Dulbecco's Modified Eagle's Medium (DMEM, Invitrogen, Germany) supplemented with 10% foetal calf serum (FCS, Sigma, Germany), 4 mM glutamine and 50 μg/ml gentamycin (both Biochrom, Germany) at 37° C. in a humidified atmosphere of 5% CO2/95% air for 7 d with exchanging the medium at day 2 and 6.
After 7 days in vitro (DIV), cells are shaken overnight at 250 rpm to remove oligodendrocytes and microglia. The next day, astrocytes are rinsed twice with CMF-PBS (calcium- and magnesium-free phosphate buffered saline, Biochrom, Germany), trypsinized and subplated on poly-D-lysine pre-coated 96-well plates (Greiner, Germany) at a density of 40,000 cells/well. 24 h after establishing the secondary culture the astrocytes are rinsed with PBS^++ (phosphate buffered saline, Biochrom, Germany) and fed with astrocyte-defined medium (ADM) consisting of DMEM containing 1×G5-supplement (Invitrogen, Germany), 0.5 μg/ml heparan sulfate, and 1.5 μg/ml fibronectin (both Sigma, Germany) (Miller et al., (1993) Brain Res. 618(1):175-8). 3 d later the medium is exchanged and the cells incubated for another 2-3 d, so that at the time of experiments astrocytes are 14-15 DIV.
Cytosolic Calcium Studies with Astrocytes:
The increase of cytosolic calcium after stimulation with the mGluR5 agonist L-quisqualate is measured using a fluorometric imaging plate reader (FLIPR) and the Ca-Kit (both Molecular Devices). Prior to addition of agonist or antagonist the medium is aspirated and cells are loaded for 2 h at RT with 150 μl of loading buffer consisting of Ca-sensitive dye reconstituted in sodium chloride (123 mM), potassium chloride (5.4 mM), magnesium chloride (0.8 mM), calcium chloride (1.8 mM), D-glucose (15 mM), and HEPES (20 mM), pH 7.3. Subsequently, plates are transferred to FLIPR to detect calcium increase with the addition of L-quisqualate (100 nM) measured as relative fluorescence units (RFU). If antagonists are tested, these compounds are pre-incubated for 10 minutes at RT before addition of the respective agonist.
(§1) The fluorescence signal increase after addition of agonist reflects the increase of cytosolic calcium. Inconsistencies in the amount of cells per well are normalised by using the spatial uniformity correction of the FLIPR software. The mean of replicated temporal data (n=3-5) is calculated and used for graphical representation. For the evaluation of the pharmacology, the calcium changes in response to different concentrations of agonist or antagonist are determined using a maximum minus minimum (MaxMin) calculation.
(§2) All responses (RFU-values) are determined as percentage of control (=maximum response). EC50 and IC50 are calculated according the logistic equation using GraFit 5.0 (Erithacus Software, GB) or Prism 4.0 (GraphPad Software, USA).

Data set [1] deals with T2, transmembrane allosteric modulatory sites of mGluR5 receptors (Rattus norvegicus, UniProt P31424).
T2 construct: from tissue; host or cells: cortex of male Sprague-Dawley rats, membrane preparation
T2 sequence (P31424 21-1203): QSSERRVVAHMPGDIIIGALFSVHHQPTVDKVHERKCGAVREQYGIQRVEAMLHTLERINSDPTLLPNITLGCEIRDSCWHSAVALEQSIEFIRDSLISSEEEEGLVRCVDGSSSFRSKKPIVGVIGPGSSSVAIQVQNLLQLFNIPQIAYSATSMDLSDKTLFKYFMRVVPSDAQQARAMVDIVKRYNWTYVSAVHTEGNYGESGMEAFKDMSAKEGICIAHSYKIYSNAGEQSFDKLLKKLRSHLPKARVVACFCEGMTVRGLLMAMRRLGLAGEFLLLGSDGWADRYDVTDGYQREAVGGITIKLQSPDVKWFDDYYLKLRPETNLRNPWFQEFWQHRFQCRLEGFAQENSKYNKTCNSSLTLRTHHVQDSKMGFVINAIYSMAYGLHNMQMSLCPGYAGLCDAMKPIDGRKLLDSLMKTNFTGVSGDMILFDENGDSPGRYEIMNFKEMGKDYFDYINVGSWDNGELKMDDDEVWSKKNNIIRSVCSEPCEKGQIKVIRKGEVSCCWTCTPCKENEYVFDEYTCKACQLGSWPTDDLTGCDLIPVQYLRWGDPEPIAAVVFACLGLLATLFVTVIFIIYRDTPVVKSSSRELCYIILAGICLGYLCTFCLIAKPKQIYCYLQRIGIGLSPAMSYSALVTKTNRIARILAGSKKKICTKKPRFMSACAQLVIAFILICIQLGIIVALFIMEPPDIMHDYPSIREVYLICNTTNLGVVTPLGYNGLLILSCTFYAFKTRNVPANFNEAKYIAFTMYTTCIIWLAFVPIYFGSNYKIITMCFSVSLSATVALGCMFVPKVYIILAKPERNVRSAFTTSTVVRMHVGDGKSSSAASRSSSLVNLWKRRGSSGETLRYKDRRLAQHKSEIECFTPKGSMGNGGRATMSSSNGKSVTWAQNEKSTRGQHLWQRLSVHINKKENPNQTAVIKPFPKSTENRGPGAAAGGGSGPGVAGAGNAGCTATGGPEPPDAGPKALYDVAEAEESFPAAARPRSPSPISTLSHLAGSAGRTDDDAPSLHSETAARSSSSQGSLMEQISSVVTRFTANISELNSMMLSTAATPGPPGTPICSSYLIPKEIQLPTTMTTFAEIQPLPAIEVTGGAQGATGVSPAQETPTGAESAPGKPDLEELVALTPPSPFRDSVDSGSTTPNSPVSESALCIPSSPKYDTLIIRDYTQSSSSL
As to the kind of experiment: [3H]-MPEP binding assay in rat cortical membranes. To be noted: displacement of radioligand, read-out: mGluR5_M_MPEP_r_CTX IC50. The procedure:
Binding Assays for the Characterization of mGluR5 Antagonists
Preparation of Rat Cortical Membranes:
Male Sprague-Dawley rats (200-250 g) are decapitated and their brains are removed rapidly. The cortex is dissected and homogenized in 20 volumes of ice-cold 0.32 M sucrose using a glass-Teflon homogenizer. The homogenate is centrifuged at 1000×g for 10 minutes. The pellet is discarded and the supernatant centrifuged at 20,000×g for 20 minutes. The resulting pellet is re-suspended in 20 volumes of distilled water and centrifuged for 20 minutes at 8000×g. Then the supernatant and the buffy coat are centrifuged at 48,000×g for 20 minutes in the presence of 50 mM Tris-HCl, pH 8.0. The pellet is then re-suspended and centrifuged two to three more times at 48,000×g for 20 minutes in the presence of 50 mM Tris-HCl, pH 8.0. All centrifugation steps are carried out at 4° C. After resuspension in 5 volumes of 50 mM Tris-HCl, pH 8.0 the membrane suspension is frozen rapidly at −80° C.
On the day of assay the membranes are thawed and washed four times by resuspension in 50 mM Tris-HCl, pH 8.0 and centrifugation at 48,000×g for 20 minutes and finally re-suspended in 50 mM Tris-HCl, pH 7.4. The amount of protein in the final membrane preparation (500-700 μg/ml) is determined according to the method of Lowry (Lowry O. H. et al. 1951. J. Biol. Chem. 193, 256-275).
The incubations are continued at room temperature for 60 minutes (equilibrium is achieved under the conditions used). […] Incubations are terminated using a Millipore filter system. The samples are rinsed twice with 4 ml of ice-cold assay buffer over glass fibre filters (Schleicher & Schuell, Germany) under a constant vacuum. Following separation and rinse, the filters are placed into scintillation liquid (5 ml Ultima Gold, Perkin Elmer, Germany) and radioactivity retained on the filters is determined with a conventional liquid scintillation counter (Can berra Packard, Germany).

The target of data set [2] is T3, metabotropic glutamate receptor (mGluR5) (Homo sapiens, UniProt P41594). As to the kind of experiment: Cytosolic calcium studies with stably transfected cells (FLIPR, CHO-K1). It counts as cell-based. More on the design: expressed in transfected cells; host or cells: CHO-K1 cells (IPTG-inducible expression). Conditions: CHO-K1 cells expressing human mGluR5; agonist L-quisqualic acid at 80% of maximal signal; negative modulation; read-out: mGluR5_FLIPR_h_CHO_NAM— IC50. The procedure: Cytosolic Calcium Studies with Stably Transfected Cells:
Chinese hamster ovary cells (CHO-K1 cells), stably transfected for inducible expression of a human metabotropic glutamate receptor mGluR5, are seeded into black clear bottom 96 well plates at a density of 35.000 cells per well. The standard growth medium used (Dulbecco's modified Eagle Medium, DMEM plus L-proline) contains the appropriate inducer isopropyl-β-D-thiogalactopyranosid (IPTG) to achieve optimal receptor expression. One day after seeding the growth medium is exchanged for reconstituted Ca-Kit (Molecular Devices, USA) and incubated for one hour. Ca-Kit is reconstituted in an assay buffer containing 20 mM HEPES pH 7.4, glutamic-pyruvate transaminase, pyridoxal phosphate and sodium pyruvate in Hank's balanced salt solution (HBBS). Agonistic compounds to the receptor elicit increases in cytosolic calcium which can be measured as increases in fluorescence signals by use of a fluorescence imaging plate reader (Molecular Devices).
as §1, §2

Data set [3] concerns the target T3, metabotropic glutamate receptor (mGluR5). The data set is described as follows: Activity as mGluR5 modulator (test not specified). Conditions: for activity as metabotropic glutamate receptor (mGluR5) modulator: prior-art compounds.

One may read the IC50 as the concentration that gives 50% inhibition. For orientation: melting point means the temperature of the solid-liquid transition.

Each structure is given as a SMILES string.

T1 sequence (P31424 21-1203): as above
T3 sequence (P41594 21-1212): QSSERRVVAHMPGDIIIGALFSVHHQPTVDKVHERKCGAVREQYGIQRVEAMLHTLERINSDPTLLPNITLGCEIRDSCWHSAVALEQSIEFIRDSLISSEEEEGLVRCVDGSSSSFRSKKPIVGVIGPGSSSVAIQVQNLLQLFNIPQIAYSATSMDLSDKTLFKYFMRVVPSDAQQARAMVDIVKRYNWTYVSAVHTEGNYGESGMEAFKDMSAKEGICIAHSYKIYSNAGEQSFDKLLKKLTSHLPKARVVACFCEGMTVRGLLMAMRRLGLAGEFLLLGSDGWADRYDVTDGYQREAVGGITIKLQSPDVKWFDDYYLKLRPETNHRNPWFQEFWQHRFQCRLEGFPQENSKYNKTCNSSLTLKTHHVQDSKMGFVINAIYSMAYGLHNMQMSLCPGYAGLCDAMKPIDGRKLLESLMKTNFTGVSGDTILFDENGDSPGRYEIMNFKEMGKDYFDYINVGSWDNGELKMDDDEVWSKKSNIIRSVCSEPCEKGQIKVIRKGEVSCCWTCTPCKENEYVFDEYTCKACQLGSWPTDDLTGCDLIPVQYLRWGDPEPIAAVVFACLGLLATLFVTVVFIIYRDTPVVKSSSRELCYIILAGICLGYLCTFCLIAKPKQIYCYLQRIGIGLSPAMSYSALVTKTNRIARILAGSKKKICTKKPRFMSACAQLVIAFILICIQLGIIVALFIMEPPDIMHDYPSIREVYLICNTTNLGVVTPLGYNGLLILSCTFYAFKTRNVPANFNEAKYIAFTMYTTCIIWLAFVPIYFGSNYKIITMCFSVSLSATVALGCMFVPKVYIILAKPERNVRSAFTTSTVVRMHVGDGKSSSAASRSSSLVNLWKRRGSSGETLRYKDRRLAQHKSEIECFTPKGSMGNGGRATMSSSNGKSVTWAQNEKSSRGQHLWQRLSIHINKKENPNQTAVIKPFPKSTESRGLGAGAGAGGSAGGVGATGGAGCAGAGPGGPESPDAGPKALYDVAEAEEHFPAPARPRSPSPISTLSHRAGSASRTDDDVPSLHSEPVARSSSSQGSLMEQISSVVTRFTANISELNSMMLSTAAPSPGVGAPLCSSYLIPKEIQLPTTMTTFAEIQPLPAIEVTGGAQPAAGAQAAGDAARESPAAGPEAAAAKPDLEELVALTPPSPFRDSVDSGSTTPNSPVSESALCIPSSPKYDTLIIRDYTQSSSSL

In the case of `CC1c2ccsc2CCN1C(=O)c1cc2ncc(Br)cn2n1` (stereo not shown) [Example 1, 6-Bromo-2-[(4-methyl-6,7-dihydrothieno[3,2-c]pyridin-5(4H)-yl)carbonyl]pyrazolo[1,5-a]pyrimidine], the 50% inhibitory concentration (IC50) stood at 23 nM at mGluR5 receptors, 80 nM in data set [1] and 80.7 nM in data set [2].

Consider `CC1c2ccsc2CCN1C(=O)c1cc2ncc(Cl)cn2n1` (stereo not shown) [Example 2, (6-Chloro-pyrazolo[1,5-a]pyrimidin-2-yl)-(4-methyl-6,7-dihydro-4H-thieno[3,2-c]pyridin-5-yl)-methanone], for which the results for the 50% inhibitory concentration (IC50) (at mGluR5 receptors; in data set [1]; in data set [2]) were 24 nM, 55 nM and 44 nM, respectively.

Turning to `CCC1c2ccsc2CCN1C(=O)c1cc2ncc(Br)cn2n1` (stereo not shown) [Example 9, (6-Bromo-pyrazolo[1,5-a]pyrimidin-2-yl)-(4-ethyl-6,7-dihydro-4H-thieno[3,2-c]pyridin-5-yl)-methanone], the half-maximal inhibitory concentration (IC50) on mGluR5 receptors amounted to 21 nM; in data set [1], 117 nM; in data set [2], 63.6 nM.

Take `CCC1c2ccsc2CCN1C(=O)c1cc2ncc(Cl)cn2n1` (stereo not shown) [Example 10, (6-Chloro-pyrazolo[1,5-a]pyrimidin-2-yl)-(4-ethyl-6,7-dihydro-4H-thieno[3,2-c]pyridin-5-yl)-methanone]: the IC50 is 21 nM at mGluR5 receptors, 150 nM in data set [1] and 82 nM in data set [2].

In the case of `Cc1cc2c(s1)CCN(C(=O)c1cc3ncc(Br)cn3n1)C2C` (stereo not shown) [Example 15, (6-Bromo-pyrazolo[1,5-a]pyrimidin-2-yl)-(2,4-dimethyl-6,7-dihydro-4H-thieno[3,2-c]pyridin-5-yl)-methanone], the half-inhibitory concentration (IC50) at mGluR5 receptors came out at 22.8 nM; in data set [1], 12 nM; in data set [2], 104 nM.

On to `Cc1cc2c(s1)CCN(C(=O)c1cc3ncc(Cl)cn3n1)C2C` (stereo not shown) [Example 16, (6-Chloro-pyrazolo[1,5-a]pyrimidin-2-yl)-(2,4-dimethyl-6,7-dihydro-4H-thieno[3,2-c]pyridin-5-yl)-methanone], for which the IC50 on mGluR5 receptors came to 21 nM; in data set [1], 20 nM; in data set [2], 92.9 nM.

`CC1c2ccoc2CCN1C(=O)c1cc2ncc(Br)cn2n1` (stereo not shown) [Example 28, 6-Bromo-2-[(4-methyl-6,7-dihydrofuro[3,2-c]pyridin-5(4H)-yl)carbonyl]pyrazolo[1,5-a]pyrimidine]: the figures for the concentration for half-maximal inhibition (IC50) (at mGluR5 receptors; in data set [1]; in data set [2]) were 80.5 nM, 214 nM and 107 nM, respectively.

In the case of `CC1c2ccoc2CCN1C(=O)c1cc2ncc(Cl)cn2n1` (stereo not shown) [Example 29, 6-Chloro-2-[(4-methyl-6,7-dihydrofuro[3,2-c]pyridin-5(4H)-yl)carbonyl]pyrazolo[1,5-a]pyrimidine], the 50% inhibitory concentration (IC50) at mGluR5 receptors was determined as 64 nM; in data set [1] it was 110 nM; in data set [2], 206 nM.

For the molecule `C[C@H]1c2ccsc2CCN1C(=O)c1cc2ncc(Br)cn2n1` [Example 41, (6-Bromo-pyrazolo[1,5-a]pyrimidin-2-yl)-(4-methyl-6,7-dihydro-4H-thieno[3,2-c]pyridin-5-yl)-methanone], the melting point lay in the range of 136 to 137 °C. In data set [2], the concentration for half-maximal inhibition (IC50) was 4420 nM.

On to `C[C@@H]1c2ccsc2CCN1C(=O)c1cc2ncc(Br)cn2n1` [Example 42, (6-Bromo-pyrazolo[1,5-a]pyrimidin-2-yl)-(4-methyl-6,7-dihydro-4H-thieno[3,2-c]pyridin-5-yl)-methanone], for which the melting point lay in the range of 142 to 144 °C. For the same molecule, the 50% inhibitory concentration (IC50) on mGluR5 receptors is 20 nM. Besides, the IC50 in data set [1] was 10 nM. Moreover, the concentration for half-maximal inhibition (IC50) in data set [2] turned out to be 23.4 nM.

As to `Cc1cc2c(o1)CCN(C(=O)c1cc3ncc(Br)cn3n1)C2C` (stereo not shown) [Example 44, (6-Bromo-pyrazolo[1,5-a]pyrimidin-2-yl)-(2,4-dimethyl-6,7-dihydro-4H-furo[3,2-c]pyridin-5-yl)-methanone], the results for the IC50 (on mGluR5 receptors; in data set [1]; in data set [2]) were 36 nM, 17 nM and 147 nM, respectively.

Regarding `O=C(c1cc2ncc(Br)cn2n1)N1CCCCC1` [Example B308, (6-Bromopyrazolo[1,5-a]pyrimidin-2-yl)-piperidin-1-yl-methanone], in data set [3], the “activity as metabotropic glutamate receptor (mGluR5) modulator” value (“activity” for short) is “no particular activity”.

On to `O=C(c1cc2ncc(Br)cn2n1)N1CCOCC1` [Example B310, (6-Bromopyrazolo[1,5-a]pyrimidin-2-yl)-morpholin-4-yl-methanone], for which, in data set [3], the “activity” value is “no particular activity”.

As to `O=C(c1cc2ncc(Br)cn2n1)N1CCc2ccccc2C1` [M, (6-Bromo-pyrazolo[1,5-a]pyrimidin-2-yl)-(1,2,3,4-tetrahydro-isoquinolin-2-yl)-methanon], in data set [3] (prior-art compound), the selectivity entry was “not selective”. In addition, the “activity” value in data set [3] is “only a limited activity”.
